Assay [1] is described as follows: viability loss in MITF-independent A375 cells – cell-based, CellTiter-Glo luminescence, dry powder, set 2, counter-screen for MITF inhibitor project, dose response (AID 624489).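 Note: actives are compounds lowering A375 viability meaning general cytotoxicity.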 In kind it is functional. Particulars: A-375. (In general: Cellular ATP, detected with luciferase, serves as a proxy for viable cell number.)
Assay [2] in a line: cytotoxicity in MITF-independent A375 cells – cell-based, CellTiter-Glo luminescence, dry powder, set 4, counter-screen for MITF inhibitor project, dose response (AID 624364).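 Note: A375 melanoma cells are MITF independent so this is a counter screen.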 In kind it is functional. Particulars: A-375.
Assay [3] can be described thus: Counterscreen for inhibitors of Trypanosoma brucei methionyl tRNA synthetase (MetRS): Luminescence-based cell-based high throughput dose response assay to identify compounds that are cytotoxic to Jurkat human T lymphocyte cells. Format: functional. (A counterscreen serves to expose hits that act by an unwanted route or on another target.)
Assay [4] concerns the target T1, Methionyl-tRNA synthetase, putative (Trypanosoma brucei brucei, UniProt Q38C91).
T1 sequence (Q38C91 whole entry): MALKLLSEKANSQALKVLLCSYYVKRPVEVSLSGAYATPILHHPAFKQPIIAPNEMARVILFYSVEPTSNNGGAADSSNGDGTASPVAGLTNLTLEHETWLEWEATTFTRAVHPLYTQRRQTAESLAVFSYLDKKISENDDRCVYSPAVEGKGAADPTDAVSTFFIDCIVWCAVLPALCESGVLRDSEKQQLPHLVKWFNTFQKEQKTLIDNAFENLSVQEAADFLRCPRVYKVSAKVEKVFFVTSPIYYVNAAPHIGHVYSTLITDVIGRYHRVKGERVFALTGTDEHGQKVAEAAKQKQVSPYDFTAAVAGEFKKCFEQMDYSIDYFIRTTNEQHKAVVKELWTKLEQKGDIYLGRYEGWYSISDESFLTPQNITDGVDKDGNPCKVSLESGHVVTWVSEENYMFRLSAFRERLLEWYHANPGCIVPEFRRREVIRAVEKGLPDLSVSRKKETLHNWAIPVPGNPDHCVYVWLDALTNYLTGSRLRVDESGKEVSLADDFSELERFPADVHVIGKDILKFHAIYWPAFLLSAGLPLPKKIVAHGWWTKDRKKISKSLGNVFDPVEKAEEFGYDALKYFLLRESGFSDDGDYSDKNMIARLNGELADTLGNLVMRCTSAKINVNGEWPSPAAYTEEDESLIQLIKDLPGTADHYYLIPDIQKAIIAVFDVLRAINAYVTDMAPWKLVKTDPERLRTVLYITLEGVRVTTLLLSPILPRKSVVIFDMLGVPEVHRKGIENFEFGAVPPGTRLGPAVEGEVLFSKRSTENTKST
Format: functional, Trypanosoma brucei brucei strain 927/4 GUTat10.1.

Assay [5] deals with T1, Methionyl-tRNA synthetase, putative. Format: functional, Trypanosoma brucei brucei strain 927/4 GUTat10.1. The source holds these as a separate data set.
Assay [6] in a line: Late stage counterscreen for inhibitors of Trypanosoma brucei methionyl tRNA synthetase (MetRS): Luminescence-based cell-based high throughput dose response assay to identify compounds that are cytotoxic to Jurkat human T lymphocyte cells. In kind it is functional.
A short description of assay [7]: P. falciparum Dd2 growth inhibitors, dose response, SYBR Green, cherry-picked samples (AID 1159567). Format: functional, cell-based.
Assay [8] in a line: viability loss in HepG2 hepatoma cells – cell-based, cherry-picks, set 5, cytotoxicity control, dose response (AID 1053118). In kind it is functional.
The nature of assay [9]: viability loss in HEK293 kidney cells – cell-based, cherry-picks, set 5, cytotoxicity control, dose response (AID 1053117). In kind it is functional.
A short description of assay [10]: blockers of FN fibrillogenesis by fibroblasts – AH1F cells, Alexa488-FN fluorescence, cherry-picks, dose response (AID 1035475). In kind it is functional, cell-based.
A short description of assay [11]: general mammalian cell viability loss – inhibitor set, cherry-pick, set 2, cytotoxicity control for miR-122 modulator project, dose response (AID 720697). Format: functional, cell-based.
Assay [12] is described as follows: activation of miR-122 Renilla sensor silencing – cell-based, Huh7 psiCHECK-miR122, Renilla luciferase, cherry-picked, dose response (AID 651956).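 Note: huh7 hepatoma cells stably carrying a psiCHECK-2 miR-122 sensor plasmid; renilla luciferase signal reporting endogenous miR-122 activity after 48 h compound exposure.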 In kind it is functional.
Assay [13] in a line: toxicity to human hepatoma HepG2 cells – cell-based, cherry-picked samples, cytotoxicity control, dose response (AID 1159577). In kind it is functional.
A short description of assay [14]: cells.
Assay [15] has as its target T2, DNA repair protein RAD52 homolog (Homo sapiens, UniProt P43351).
T2 sequence (P43351 whole entry): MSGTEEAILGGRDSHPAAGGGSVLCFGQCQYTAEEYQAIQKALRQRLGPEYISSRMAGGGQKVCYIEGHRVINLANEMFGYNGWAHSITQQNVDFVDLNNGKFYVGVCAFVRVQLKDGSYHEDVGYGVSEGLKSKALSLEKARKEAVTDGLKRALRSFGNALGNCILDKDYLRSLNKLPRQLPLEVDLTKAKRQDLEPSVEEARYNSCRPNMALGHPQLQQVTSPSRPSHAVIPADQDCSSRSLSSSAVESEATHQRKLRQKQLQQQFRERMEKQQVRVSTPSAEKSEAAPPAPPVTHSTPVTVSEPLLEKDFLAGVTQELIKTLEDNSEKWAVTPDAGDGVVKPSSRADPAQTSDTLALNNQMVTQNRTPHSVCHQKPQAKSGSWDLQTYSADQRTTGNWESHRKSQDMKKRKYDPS
In kind it is functional, biochemical.

Assay [16] is described as follows: viability loss in HepG2 liver cells – cell-based, ATP luminescence, cherry-pick, set 6, cytotoxicity control, dose response (AID 1053125). Format: functional.

Calls of active or inactive are those of the source.

In the case of `O=C1C(NS(=O)(=O)c2cccs2)=C(N2CCOCC2)C(=O)c2ccccc21`, the AC50 in assay [1] and in assay [2] was > 70 µM (inactive) each time.
Turning to `CN1CC(=O)N2C(c3cccc([N+](=O)[O-])c3)c3[nH]c4ccccc4c3C[C@H]2C1=O` (stereo partly specified), the IC50 (usually the concentration needed to halve the response being measured) was 83.3 µM (inactive) in assay [3], 0.393 µM (active) in assay [4], 0.798 µM (active) in [5] and > 83.3 µM (inactive) in assay [6].
For the compound `CO[C@H]1CN(C)C(=O)c2cc(NC(=O)Nc3ccc(Cl)c(Cl)c3)ccc2OC[C@H](C)NC[C@H]1C`, the AC50 (in general, the concentration at which the activity in the assay is half-maximal) in assay [7] is 10.4 µM (active); in assay [8] it was 18.5 µM (active); in assay [9], 26.6 µM (active); in [10], > 70 µM (inactive); in [11], 18.1 µM (active); in assay [12], 23.2 µM (active). The concentration at half-maximal activity (AC50) in assay [13] was 12.1 µM (active).
`Cc1cccn2c(=O)c3cc(C(N)=S)c(=N)n(CCCN4CCOCC4)c3nc12`: the AC50 in assay [14] is 5.15 µM (active); in assay [15] it was 3.43 µM (active); in [16] it was > 52 µM (inactive).

The record behind these values is ChEMBL document CHEMBL1201862, “PubChem BioAssay data set” (2004).
